According to PubChem BioAssay (NCI):
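Assay format: 96-well plates, 48-hour exposure. GI50 = concentration required for 50% inhibition of growth. At the TGI there is no net growth.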

Legend:
Assay in all cases: NCI tumour cell line growth inhibition, 48 h
[1] = system: NCI-H460 lung
[2] = system: HCT-116 colon
[3] = system: IGROV1 ovarian
[4] = system: M14 melanoma
[5] = system: MCF7 breast
[6] = system: MDA-MB-435
[7] = system: SNB-19 CNS
[8] = system: SN12C renal
[9] = system: T-47D breast
[10] = system: OVCAR-8 ovarian
[11] = system: NCI-H23 lung
[12] = system: HS 578T breast
[13] = system: MOLT-4 leukemia
[14] = system: SF-268 CNS
[15] = system: LOX IMVI melanoma
[16] = system: CCRF-CEM leukemia
[17] = system: HCC-2998 colon
[18] = system: MDA-MB-231 breast
[19] = system: EKVX NSCLC
[20] = system: NCI-H226 lung
[21] = system: UO-31 renal
[22] = system: SR leukemia
[23] = system: SW-620 colon
[24] = system: TK-10 renal
[25] = system: UACC-62 melanoma
[26] = system: UACC-257 melanoma
[27] = system: OVCAR-4 ovarian
[28] = system: DU-145 prostate
[29] = system: BT-549 breast
[30] = system: PC-3 prostate
[31] = system: SK-MEL-28 melanoma
[32] = system: HL-60(TB) leukemia
[33] = system: SK-MEL-2 melanoma
[34] = system: COLO 205 colon
[35] = system: SK-OV-3 ovarian
[36] = system: RXF 393 renal
[37] = system: CAKI-1 renal
[38] = system: HT29 colon
[39] = system: HOP-92 NSCLC
[40] = system: KM12 colon
[41] = system: HOP-62 NSCLC
[42] = system: 786-0 renal
[43] = system: A549 NSCLC
[44] = system: A498 renal
[45] = system: OVCAR-5 ovarian
[46] = system: SF-539 CNS
[47] = system: SK-MEL-5 melanoma
[48] = system: MALME-3M melanoma
[49] = system: OVCAR-3 ovarian
[50] = system: SF-295 CNS
[51] = system: K-562 leukemia
[52] = system: U251 CNS
[53] = system: HCT-15 colon
[54] = system: RPMI-8226 leukemia
[55] = system: ACHN renal
[56] = system: NCI-H522 lung
[57] = system: SNB-75 CNS
[58] = system: NCI/ADR-RES ovarian

Compound: CN(CC(=O)N(Cc1ccc(C2CCCCC2)cc1)c1ccc(C(=O)O)c(O)c1)S(=O)(=O)c1c(F)c(F)c(F)c(F)c1F
- GI50 [1]: 16.4 µM
- TGI [1]: 36.5 µM
- GI50 [2]: 3.72 µM
- TGI [2]: 11.9 µM
- GI50 [3]: 1.85 µM
- TGI [3]: 4.08 µM
- GI50 [4]: 3.07 µM
- TGI [4]: 13 µM
- GI50 [5]: 3.56 µM
- TGI [5]: 15.1 µM
- GI50 [6]: 3.39 µM
- TGI [6]: 15.8 µM
- GI50 [7]: 11.3 µM
- TGI [7]: 25.1 µM
- GI50 [8]: 6.74 µM
- TGI [8]: 24.4 µM
- GI50 [9]: 8.14 µM
- TGI [9]: 27 µM
- GI50 [10]: 7.11 µM
- TGI [10]: 20.5 µM
- GI50 [11]: 10.6 µM
- TGI [11]: 26.9 µM
- GI50 [12]: 6.92 µM
- TGI [12]: 35.1 µM
- GI50 [13]: 3.12 µM
- TGI [13]: 12 µM
- GI50 [14]: 7.19 µM
- TGI [14]: 20.9 µM
- GI50 [15]: 1.6 µM
- TGI [15]: 3.01 µM
- GI50 [16]: 1.84 µM
- TGI [16]: 4.69 µM
- GI50 [17]: 2.37 µM
- TGI [17]: 5.72 µM
- GI50 [18]: 1.86 µM
- TGI [18]: 4.13 µM
- GI50 [19]: 15.7 µM
- TGI [19]: 29.8 µM
- GI50 [20]: 18.6 µM
- TGI [20]: 41.5 µM
- GI50 [21]: 12 µM
- TGI [21]: 25.8 µM
- GI50 [22]: 1.9 µM
- TGI [22]: 4.28 µM
- GI50 [23]: 1.71 µM
- TGI [23]: 3.23 µM
- GI50 [24]: 16.5 µM
- TGI [24]: 30.4 µM
- GI50 [25]: 3.18 µM
- TGI [25]: 12.1 µM
- GI50 [26]: 3.93 µM
- TGI [26]: 8.53 µM
- GI50 [27]: 14 µM
- TGI [27]: 27.8 µM
- GI50 [28]: 15.6 µM
- TGI [28]: 29 µM
- GI50 [29]: 10.9 µM
- TGI [29]: 23.6 µM
- GI50 [30]: 12.2 µM
- TGI [30]: 27.7 µM
- GI50 [31]: 1.86 µM
- TGI [31]: 3.89 µM
- GI50 [32]: 2.18 µM
- TGI [32]: 5.82 µM
- GI50 [33]: 2.2 µM
- TGI [33]: 4.76 µM
- GI50 [34]: 12.7 µM
- TGI [34]: 26.5 µM
- GI50 [35]: 16.5 µM
- TGI [35]: 31.1 µM
- GI50 [36]: 1.89 µM
- TGI [36]: 3.76 µM
- GI50 [37]: 5.09 µM
- TGI [37]: 10.4 µM
- GI50 [38]: 2.05 µM
- TGI [38]: 4.2 µM
- GI50 [39]: 1.95 µM
- TGI [39]: 8.91 µM
- GI50 [40]: 19 µM
- TGI [40]: 33.7 µM
- GI50 [41]: 13.4 µM
- TGI [41]: 30.4 µM
- GI50 [42]: 8.88 µM
- TGI [42]: 23.8 µM
- GI50 [43]: 14.9 µM
- TGI [43]: 31.7 µM
- GI50 [44]: 13.2 µM
- TGI [44]: 26.1 µM
- GI50 [45]: 17.5 µM
- TGI [45]: 32.4 µM
- GI50 [46]: 18.2 µM
- TGI [46]: 35 µM
- GI50 [47]: 14 µM
- TGI [47]: 27.3 µM
- GI50 [48]: 2.89 µM
- TGI [48]: 12.3 µM
- GI50 [49]: 9.95 µM
- TGI [49]: 23.3 µM
- GI50 [50]: 17.4 µM
- TGI [50]: 37.2 µM
- GI50 [51]: 2.05 µM
- TGI [51]: 4.57 µM
- GI50 [52]: 1.81 µM
- TGI [52]: 3.82 µM
- GI50 [53]: 2.08 µM
- TGI [53]: 4.43 µM
- GI50 [54]: 2.28 µM
- TGI [54]: 6.37 µM
- GI50 [55]: 15.3 µM
- TGI [55]: 28.8 µM
- GI50 [56]: 2.74 µM
- TGI [56]: 8.51 µM
- GI50 [57]: 6.07 µM
- TGI [57]: 16.7 µM
- GI50 [58]: 17.2 µM
- TGI [58]: 38.1 µM
